Assay results: PMC6277767, “Broad and Region-Specific Impacts of the Synthetic Cannabinoid CP 55,940 in Adolescent and Adult Female Mouse Brains” (Frontiers in Molecular Neuroscience, 2018)

Tested on: CD1 female mouse brain lipidome
Experiment: Brain-region lipid levels (HPLC/MS/MS lipidomics) 2 h after single i.p. 3 mg/kg CP 55,940 vs vehicle
Assay type: in vivo
Details: cerebellum, 3 mg/kg CP 55,940
Description: The Bloomington Institutional Animal Care and Use Committee of Indiana University reviewed and approved the animal procedures. Female mice from the CD1 strain were utilized to match our study examining THC’s effects on the brain lipidome ([Leishman et al., 2018]). Mice were given a single i.p. injection of either 3 mg/kg CP or 1:1:18 cremophor:ethanol:saline vehicle (please refer to the section “3 mg/kg CP Is Relevant for Synthetic Cannabinoid Abuse and Has Stronger Effects on the Female Mouse Brain Lipidome During Adolescence” for a justification of dose and use of female mice). Three different age groups were given injections: PND 35 and PND 50 adolescents, and adult mice (PND 113). At least eight mice in each age group received CP and at least eight received vehicle. Matching the THC study time course ([Leishman et al., 2018]), mice were sacrificed via rapid decapitation 2 h after injection. Brains were immediately removed and flash-frozen in liquid nitrogen, and then stored at -80°C until dissections were performed. Brains were dissected on an ice-cold dissection plate into the following regions: STR, HIPP, CER, THAL, CTX, HYP, MID, and STEM. These abbreviations for these brain areas will be used exclusively when discussing the results generated by these specific dissections. Each dissected area was immediately placed in liquid nitrogen and then stored at -80°C until used for lipid extraction.
Tissue extracts were performed as previously described ([Bradshaw et al., 2006]; [Stuart et al., 2013]; [Raboune et al., 2014]; [Leishman et al., 2016a],[b], [2017], [2018]). First, samples were shock frozen in liquid nitrogen, weighed, and transferred to a centrifuge tube. The mass of the largest sample was multiplied by 50 to determine how many milliliters of HPLC-grade methanol (Fisher, Fair Lawn, NJ, United States) to add. Then, samples were spiked with 500 pmol deuterium-labeled NAGly (d8NAGly; Cayman Chemical, Ann Arbor, MI, United States). Samples were placed on ice in darkness for 2 h then individually homogenized and centrifuged at 19,000 × g for 20 min at 20°C. Supernatants were diluted with HPLC water (purified in house) to make a solution of 75% water, 25% supernatant. Lipids were partially purified on C18 solid phase extraction columns (Agilent, Palo Alto, CA, United States). A series of four elutions with 1.5 mL of 60%, 75%, 85%, and 100% methanol were collected ([Stuart et al., 2013]; [Leishman et al., 2016a],[b], [2018]).
As previously described ([Bradshaw et al., 2006]; [Tan et al., 2006]; [Smoum et al., 2010]; [Stuart et al., 2013]; [Tortoriello et al., 2013]; [Raboune et al., 2014]; [Leishman et al., 2016a],[b], [2017], [2018]), samples were analyzed using an Applied Biosystems API 3000 triple quadrupole mass spectrometer with electrospray ionization (Foster City, CA, United States). Using an Agilent XDB-C18 reversed phase analytical column and optimized mobile phase gradients, 20 μL from each elution were chromatographed. Two Shimadzu 10ADvp pumps (Columbia, MD, United States) provided the pressure for gradient elution. Mobile phase A: 20% methanol, 80% water (v/v) and 1 mM ammonium acetate (Sigma, St. Louis, MO, United States). Mobile phase B: 100% methanol, 1 mM ammonium acetate. Every method run began with 0% mobile phase B, reached 100% mobile phase B flowing at 0.2 mL/min, and gradually returned to 0% mobile phase B.
This screening library will be referred to as the lipidome when discussing data from this study. HPLC/MS/MS data were analyzed using Analyst software (Applied Biosystems) ([Bradshaw et al., 2006]; [Tan et al., 2006]; [Stuart et al., 2013]; [Tortoriello et al., 2013]; [Raboune et al., 2014]; [Leishman et al., 2016a],[b], [2017], [2018]). Chromatograms (Supplementary Figure 3) were generated by determining the retention time of analytes from the analytical column with a [M-1] or [M+1] parent peak and a fragmentation peak corresponding to the programmed values. […]

In the case of `CCCCCCC(C)(C)c1ccc([C@@H]2C[C@H](O)CC[C@H]2CCCO)c(O)c1` [CP 55,940], the “PGE2: Magnitude (x Veh level)” value (adult) is reported as 0.70 x Veh level, the “PGF2α: Direction (relative to Veh)” value (adult) is reported as “↓” and the “PGF2α: Magnitude (x Veh level)” value (adult) is reported as 0.67 x Veh level. The “phosphoLEA: Direction (relative to Veh)” value (adult) was “↓”, the “phosphoLEA: Magnitude (x Veh level)” value (adult) was 0.71 x Veh level and the “2-arachidonoyl glycerol: Direction (relative to Veh)” value (PND 35) was “↓”. For the same molecule, the “2-arachidonoyl glycerol: Magnitude (x Veh level)” value (PND 35) was 0.80 x Veh level, the “2-linoleoyl glycerol: Direction (relative to Veh)” value (PND 35) was “↓” and the “2-linoleoyl glycerol: Magnitude (x Veh level)” value (PND 35) was 0.75 x Veh level. For the same molecule, the “6-ketoPGF1α: Magnitude (x Veh level)” value (PND 35) was 0.61 x Veh level, the “Arachidonic acid: Direction (relative to Veh)” value (PND 35) was “↓” and the “Arachidonic acid: Magnitude (x Veh level)” value (PND 35) was 0.92 x Veh level. For the same molecule, the “N-arachidonoyl GABA: Direction (relative to Veh)” value (PND 35) was “↓”, the “N-arachidonoyl GABA: Magnitude (x Veh level)” value (PND 35) was 0.72 x Veh level and the “N-arachidonoyl alanine: Direction (relative to Veh)” value (PND 35) was “↓”. The “N-arachidonoyl alanine: Magnitude (x Veh level)” value (PND 35) was 0.71 x Veh level, the “N-arachidonoyl glycine: Direction (relative to Veh)” value (PND 35) was “↓” and the “N-arachidonoyl glycine: Magnitude (x Veh level)” value (PND 35) was 0.89 x Veh level. For the same molecule, the “N-arachidonoyl methionine: Direction (relative to Veh)” value (PND 35) was “↓”, the “N-arachidonoyl methionine: Magnitude (x Veh level)” value (PND 35) was 0.63 x Veh level and the “N-arachidonoyl serine: Direction (relative to Veh)” value (PND 35) was “↓”. The “N-arachidonoyl serine: Magnitude (x Veh level)” value (PND 35) was 0.74 x Veh level, the “N-arachidonoyl taurine: Direction (relative to Veh)” value (PND 35) was “↓” and the “N-arachidonoyl taurine: Magnitude (x Veh level)” value (PND 35) was 0.87 x Veh level. For the same molecule, the “N-arachidonoyl tyrosine: Direction (relative to Veh)” value (PND 35) was “↓”, the “N-arachidonoyl tyrosine: Magnitude (x Veh level)” value (PND 35) was 0.70 x Veh level and the “N-docosahexaenoyl GABA: Direction (relative to Veh)” value (PND 35) was “↓”. The “N-docosahexaenoyl GABA: Magnitude (x Veh level)” value (PND 35) was 0.81 x Veh level, the “N-docosahexaenoyl alanine: Direction (relative to Veh)” value (PND 35) was “↓” and the “N-docosahexaenoyl alanine: Magnitude (x Veh level)” value (PND 35) was 0.72 x Veh level. For the same molecule, the “N-docosahexaenoyl glycine: Direction (relative to Veh)” value (PND 35) was “↓”, the “N-docosahexaenoyl glycine: Magnitude (x Veh level)” value (PND 35) was 0.92 x Veh level and the “N-docosahexaenoyl leucine: Direction (relative to Veh)” value (PND 35) was “↑”. The “N-docosahexaenoyl leucine: Magnitude (x Veh level)” value (PND 35) was 1.44 x Veh level, the “N-docosahexaenoyl serine: Direction (relative to Veh)” value (PND 35) was “↓” and the “N-docosahexaenoyl serine: Magnitude (x Veh level)” value (PND 35) was 0.72 x Veh level. The “N-docosahexaenoyl tyrosine: Direction (relative to Veh)” value (PND 35) was “↓”, the “N-docosahexaenoyl tyrosine: Magnitude (x Veh level)” value (PND 35) was 0.84 x Veh level and the “N-linoleoyl glycine: Direction (relative to Veh)” value (PND 35) was “↓”. The “N-linoleoyl glycine: Magnitude (x Veh level)” value (PND 35) was 0.89 x Veh level, the “N-linoleoyl leucine: Direction (relative to Veh)” value (PND 35) was “↑” and the “N-linoleoyl leucine: Magnitude (x Veh level)” value (PND 35) was 1.29 x Veh level. The “N-linoleoyl phenylalanine: Direction (relative to Veh)” value (PND 35) was “↑”, the “N-linoleoyl phenylalanine: Magnitude (x Veh level)” value (PND 35) was 1.28 x Veh level and the “N-oleoyl GABA: Direction (relative to Veh)” value (PND 35) was “↓”. The “N-oleoyl GABA: Magnitude (x Veh level)” value (PND 35) was 0.83 x Veh level, the “N-oleoyl ethanolamine: Direction (relative to Veh)” value (PND 35) was “↓” and the “N-oleoyl ethanolamine: Magnitude (x Veh level)” value (PND 35) was 0.81 x Veh level. For the same molecule, the “N-oleoyl leucine: Direction (relative to Veh)” value (PND 35) was “↑”, the “N-oleoyl leucine: Magnitude (x Veh level)” value (PND 35) was 1.25 x Veh level and the “N-oleoyl phenylalanine: Direction (relative to Veh)” value (PND 35) was “↑”.
